Assay results from US11236102B2, “Oxabicycloheptane prodrugs” (Lixte Biotechnology, Inc., priority 2015, dated 2022).
“And” between values parts separate entries of the source, which are not always exact repeats. Identical values can stand only once. Like-named read-outs stand apart in the source and are kept apart here.

Assay: Pharmacokinetic study of 151 (iv, oral) in SD rats: 151 and 100 in plasma
Type: in vivo
Procedure: The absolute bioavailability was evaluated.
To each sample, 160 μL of acetonitrile were added.
The mass spectrometer was operated in the positive mode.
Quantification was achieved by the external standard method.
Calibration Curve for Plasma Samples
LB100 concentrations of the LB151 plasma samples were also measured and pharmacokinetic parameters were calculated.

[1] = 151 IV 1.0 mg/kg, SD rats, individual rats, 1 mg/kg

COC(=O)C1C2CCC(O2)C1C(=O)N1CCN(C)CC1 (stereo not shown) [Compound 151]
151 plasma concentration (151 IV 1.0 mg/kg, SD rats, 0.083 h, individual rats, 1 mg/kg): 1301 ng/mL
151 plasma concentration (151 IV 1.0 mg/kg, SD rats, 0.250 h, individual rats, 1 mg/kg): 949 ng/mL
151 plasma concentration (151 IV 1.0 mg/kg, SD rats, 0.50 h, individual rats, 1 mg/kg): 607 ng/mL
151 plasma concentration (151 IV 1.0 mg/kg, SD rats, 1.0 h, individual rats, 1 mg/kg): 314 ng/mL
151 plasma concentration (151 IV 1.0 mg/kg, SD rats, 2.0 h, individual rats, 1 mg/kg): 103 ng/mL
151 plasma concentration (151 IV 1.0 mg/kg, SD rats, 3.0 h, individual rats, 1 mg/kg): 28.1 ng/mL
151 plasma concentration (151 IV 1.0 mg/kg, SD rats, 5.0 h, individual rats, 1 mg/kg): 9.75 ng/mL and 3.63 ng/mL
151 plasma concentration (151 IV 1.0 mg/kg, SD rats, 7.0 h, individual rats, 1 mg/kg): 12.2 ng/mL and 1.83 ng/mL
151 plasma concentration (151 IV 1.0 mg/kg, SD rats, 9.0 h, individual rats, 1 mg/kg): BLQ
151 plasma concentration (151 IV 1.0 mg/kg, SD rats, 24 h, individual rats): BLQ
CL of 151 [1]: 955 mL/h/kg
Vss of 151 [1]: 775 mL/kg
F of 151 (151 PO 10 mg/kg vs IV 1.0 mg/kg, SD rats, mean, based on AUC0-∞): 54.6%
151 plasma concentration (151 PO 10 mg/kg, SD rats, 0.25 h, individual rats, 10 mg/kg): 2029 ng/mL and 2731 ng/mL
151 plasma concentration (151 PO 10 mg/kg, SD rats, 0.50 h, individual rats, 10 mg/kg): 3934 ng/mL and 3343 ng/mL
151 plasma concentration (151 PO 10 mg/kg, SD rats, 1.0 h, individual rats, 10 mg/kg): 2581 ng/mL and 2538 ng/mL
151 plasma concentration (151 PO 10 mg/kg, SD rats, 2.0 h, individual rats, 10 mg/kg): 1237 ng/mL and 1582 ng/mL
151 plasma concentration (151 PO 10 mg/kg, SD rats, 3.0 h, individual rats, 10 mg/kg): 660 ng/mL and 794 ng/mL
151 plasma concentration (151 PO 10 mg/kg, SD rats, 5.0 h, individual rats, 10 mg/kg): 99.4 ng/mL and 192 ng/mL
151 plasma concentration (151 PO 10 mg/kg, SD rats, 7.0 h, individual rats, 10 mg/kg): 42.6 ng/mL and 20.7 ng/mL and 68.0 ng/mL
151 plasma concentration (151 PO 10 mg/kg, SD rats, 9.0 h, individual rats, 10 mg/kg): 38.2 ng/mL and 66.1 ng/mL
151 plasma concentration (151 PO 10 mg/kg, SD rats, 24 h, individual rats): BLQ
time of peak plasma concentration (151 oral 10 mg/kg, SD rats (n=3)): 0.5 h
concentration at 0.083 h (male, Sprague-Dawley, rat, in vivo, iv, 1 mg/kg, 151 IV 1.0 mg/kg, SD rats, 0.083 h, individual rats): 1680 ng/mL
concentration at 0.083 h (male, Sprague-Dawley, rat, in vivo, iv, 1 mg/kg, 151 IV 1.0 mg/kg, SD rats, 0.083 h, mean): 1490 ng/mL
concentration at 0.25 h (male, Sprague-Dawley, rat, in vivo, iv, 1 mg/kg, 151 IV 1.0 mg/kg, SD rats, 0.250 h, individual rats): 1160 ng/mL
concentration at 0.25 h (male, Sprague-Dawley, rat, in vivo, iv, 1 mg/kg, 151 IV 1.0 mg/kg, SD rats, 0.250 h, mean): 1060 ng/mL
concentration at 0.5 h (male, Sprague-Dawley, rat, in vivo, iv, 1 mg/kg, 151 IV 1.0 mg/kg, SD rats, 0.50 h, individual rats): 760 ng/mL
concentration at 0.5 h (male, Sprague-Dawley, rat, in vivo, iv, 1 mg/kg, 151 IV 1.0 mg/kg, SD rats, 0.50 h, mean): 683 ng/mL
concentration at 1 h (male, Sprague-Dawley, rat, in vivo, iv, 1 mg/kg, 151 IV 1.0 mg/kg, SD rats, 1.0 h, individual rats): 381 ng/mL
concentration at 1 h (male, Sprague-Dawley, rat, in vivo, iv, 1 mg/kg, 151 IV 1.0 mg/kg, SD rats, 1.0 h, mean): 348 ng/mL
concentration at 2 h (male, Sprague-Dawley, rat, in vivo, iv, 1 mg/kg, 151 IV 1.0 mg/kg, SD rats, 2.0 h, individual rats): 95.8 ng/mL
concentration at 2 h (male, Sprague-Dawley, rat, in vivo, iv, 1 mg/kg, 151 IV 1.0 mg/kg, SD rats, 2.0 h, mean): 99.6 ng/mL
concentration at 3 h (male, Sprague-Dawley, rat, in vivo, iv, 1 mg/kg, 151 IV 1.0 mg/kg, SD rats, 3.0 h, individual rats): 39.6 ng/mL
concentration at 3 h (male, Sprague-Dawley, rat, in vivo, iv, 1 mg/kg, 151 IV 1.0 mg/kg, SD rats, 3.0 h, mean): 33.8 ng/mL
concentration at 5 h (male, Sprague-Dawley, rat, in vivo, iv, 1 mg/kg, 151 IV 1.0 mg/kg, SD rats, 5.0 h, mean): 6.69 ng/mL
concentration at 7 h (male, Sprague-Dawley, rat, in vivo, iv, 1 mg/kg, 151 IV 1.0 mg/kg, SD rats, 7.0 h, mean): 7.02 ng/mL
concentration at 9 h (male, Sprague-Dawley, rat, in vivo, iv, 1 mg/kg, 151 IV 1.0 mg/kg, SD rats, 9.0 h, individual rats): 2.01 ng/mL
concentration at 9 h (male, Sprague-Dawley, rat, in vivo, iv, 1 mg/kg, 151 IV 1.0 mg/kg, SD rats, 9.0 h, mean): 1 ng/mL
clearance (male, Sprague-Dawley, rat, in vivo, iv, 1 mg/kg, 151 IV 1.0 mg/kg, SD rats, individual rats, read-out: CL of 151 (converted)): 12.7 mL/min/kg
Vd (male, Sprague-Dawley, rat, in vivo, iv, 1 mg/kg, 151 IV 1.0 mg/kg, SD rats, individual rats, read-out: Vss of 151): 0.696 L/kg
clearance (male, Sprague-Dawley, rat, in vivo, iv, 1 mg/kg, 151 IV 1.0 mg/kg, SD rats, mean, read-out: CL of 151 (converted)): 14.3 mL/min/kg
Vd (male, Sprague-Dawley, rat, in vivo, iv, 1 mg/kg, 151 IV 1.0 mg/kg, SD rats, mean, read-out: Vss of 151): 0.736 L/kg
half-life (male, Sprague-Dawley, rat, in vivo, iv, 1 mg/kg, 151 iv 1.0 mg/kg (n=2), read-out: elimination half-life (converted)): 53.4 min
clearance (male, Sprague-Dawley, rat, in vivo, iv, 1 mg/kg, 151 iv 1.0 mg/kg (n=2), read-out: mean clearance from rat plasma (converted)): 14.3 mL/min/kg
Vd (male, Sprague-Dawley, rat, in vivo, iv, 1 mg/kg, 151 iv 1.0 mg/kg (n=2), read-out: volume of distribution at steady state): 0.736 L/kg
